Reference: patent US5691348A, “Pyridyl imidazole derivatives and processes for the preparation thereof” (Daewoo Electronics Co., Ltd., priority 1994, dated 1997)

Assays:
renal hypertensive rats = assay: Duration of action in renal hypertensive rats; format: in vivo, Sprague-Dawley rat; details: 3 mg/kg oral
Text: To induce renal hypertension, left renal artery of 4 week-old male Sprague-Dawley rat (from The Korea Research Institute of Chemical Technology) was ligated. The rat was anesthetized with ether and the surgical region on the left abdomen of the rat was shaved, disinfected, and then incised about 1 cm vertically. The renal artery near abdominal aorta was isolated carefully from surrounding tissues and veins, and then ligated completely with a suture (4/0 sterile surgical silk). The muscular strata and skin of the surgical area were sutured with a suture (4/0 sterile surgical silk). The surgical region was disinfected to prevent infection and thereafter, 200 to 250 mg/kg/day of cephazolin sodium was injected intramuscularly for 2 days. 6 to 8 days after the ligation, rats showing systolic pressure of more than 180 mmHg were selected for renal hypertension test. The blood pressure was determined by a tail-cuff method from the tail under unanesthetized condition (Gerold, M. et al., Arzneimittel-Forsch., 18, 1285(1968)).
Each of the compounds to be tested was administered intravenously or orally into the renal hypertensive rat. The blood pressure of the rat was determined by direct method (Chiu, A. T. et al., J. Pharmacol. Exp. Ther., 250, 867(1989)) using a catheter. The rat was anesthetized with ketamine hydrochloride (125 mg/kg, i.p.) and a catheter was filled with saline and inserted into a carotid artery and […]. The surgical area was sutured with a metal clip. The rat was relaxed at least 3 hours and the catheter in the carotid artery was adapted to an isotec pressure transducer to determine the blood pressure and heart rate with a physiograph (Linearcorder WR3310). After the blood pressure was stabilized, the test compound was administered intravenously or orally. For intravenous administration, the administered volume and washing volume were 1.0 ml/kg and 0.2 ml, respectively. The blood pressure and heart rate were measured in regular intervals up to 24 hours after the administration of the test compound and compared with those measured after the administration of the control compound Losartan.
The test compound was dissolved in 0.05N KOH for intravenous administration and suspended in Tween 80 for oral administration.
The compound of Example 1 and the Merck compound were tested using the hypertensive rats of test 2(i). 3 mg/kg of each compound was administered orally and blood pressure lowering effect with time was determined to measure the duration of action of the compounds.

unanesthetized dogs = assay: Maximum blood pressure lowering effect in unanesthetized dogs at different amounts; format: in vivo, dog
Description: (§1) A number of dog was fed freely in a feeding room and those weighing 7 to 12 kg in good health were selected regardless of their gender.
(§2) The test dog was anesthetized with 30 mg/kg of pentobarbital sodium by intravenous injection and the left femoral artery and femoral vein were separated carefully. Silicone catheter, specially prepared and filled with saline treated with heparin (1,000 IU/ml), was cannulated into the blood vessels. After the surgery, the dog was constrained to measure the blood pressure continuously with Gould 2000 physiograph adapted to a Grass P23XL pressure transducer; and the heart rate was monitored with ECG/Biotacho amplifier. The dog was tested at least 2 days after the surgery.
10 mg/kg of furosemide was injected intramuscularly 18 hours (in case of intravenous injection, 2 hours) before the beginning of the test (administration of the test compound) to improve the activity of renin in blood plasma. After the injection of furosemide, neither food nor water was provided. The test compound was suspended in Tween 80 and administered in an amount of 20 mg/kg orally. The blood pressure and heart rate were measured up to 8 hours after the administration of each test compound.
The maximum blood pressure lowering effect of the present compounds and the control compounds were determined in different amounts of administration using the same method as (i) and the results are given in Table 4.

[1] = tested on: furosemide-administered dogs; assay: Duration of action in furosemide-administered dogs; format: in vivo, dog; details: 0.3 mg oral
Description: as §1, §2
10 mg/kg of furosemide was injected intramuscularly 18 hours (in case of intravenous injection, 2 hours) before the beginning of the test (administration of the test compound) to improve the activity of renin in blood plasma. After the injection of furosemide, neither food nor water was provided. […] The blood pressure and heart rate were measured up to 8 hours after the administration of each test compound.
The compound of Example 1 and the Merck compound were administered orally to the furosemide-administrated dogs as in test 3(i), and blood pressure lowering effect was measured with time.

CCCCc1nc2cc(-c3cccc[n+]3[O-])c(CO)nc2n1Cc1ccc(-c2ccccc2-c2nn[nH]n2)cc1 [Example 1, 2-Butyl-5-hydroxymethyl-6-(1-oxy-pyridin-2-yl)-3-[2'-(1H-tetrazol-5-yl)-biphenyl-4-ylmethyl]-3H-imidazo[4,5-b]pyridine]
Maximum Blood Pressure Lowering Effect (renal hypertensive rats; 0 min): 0%
Maximum Blood Pressure Lowering Effect (renal hypertensive rats; 10 min): -11%
Maximum Blood Pressure Lowering Effect (renal hypertensive rats; 20 min): -19%
Maximum Blood Pressure Lowering Effect (renal hypertensive rats; 30 min): -32%
Maximum Blood Pressure Lowering Effect (renal hypertensive rats; 60 min): -48%
Maximum Blood Pressure Lowering Effect (renal hypertensive rats; 90 min): -42%
Maximum Blood Pressure Lowering Effect (renal hypertensive rats; 120 min): -44%
Maximum Blood Pressure Lowering Effect (renal hypertensive rats; 240 min): -58%
Maximum Blood Pressure Lowering Effect (renal hypertensive rats; 360 min): -60%
Maximum Blood Pressure Lowering Effect (renal hypertensive rats; 1320 min): -48%
Maximum Blood Pressure Lowering Effect (renal hypertensive rats; 1440 min): -49%
duration of action compared with the Merck compound (renal hypertensive rats; renal hypertensive rats): far longer duration of action than the Merck compound
Maximum Blood Pressure Lowering Effect (unanesthetized dogs; 0.3 mg/kg): -17%
Maximum Blood Pressure Lowering Effect (unanesthetized dogs; 1 mg/kg): -25%
Maximum Blood Pressure Lowering Effect ([1]; 0 min): 0.0%
Maximum Blood Pressure Lowering Effect ([1]; 10 min): 2.2%
Maximum Blood Pressure Lowering Effect ([1]; 20 min): -1.1%
Maximum Blood Pressure Lowering Effect ([1]; 30 min): -5.9%
Maximum Blood Pressure Lowering Effect ([1]; 60 min): -11.4%
Maximum Blood Pressure Lowering Effect ([1]; 90 min): -12.9%
Maximum Blood Pressure Lowering Effect ([1]; 120 min): -14.8%
Maximum Blood Pressure Lowering Effect ([1]; 150 min): -16.1%
Maximum Blood Pressure Lowering Effect ([1]; 180 min): -16.7%
Maximum Blood Pressure Lowering Effect ([1]; 210 min): -17.4%
Maximum Blood Pressure Lowering Effect ([1]; 240 min): -18.2%
Maximum Blood Pressure Lowering Effect ([1]; 270 min): -17.0%
Maximum Blood Pressure Lowering Effect ([1]; 300 min): -20.5%
Maximum Blood Pressure Lowering Effect ([1]; 330 min): -20.7%
Maximum Blood Pressure Lowering Effect ([1]; 360 min): -20.4%
Maximum Blood Pressure Lowering Effect ([1]; 390 min): -20.1%
Maximum Blood Pressure Lowering Effect ([1]; 420 min): -20.5%
Maximum Blood Pressure Lowering Effect ([1]; 450 min): -20.5%
Maximum Blood Pressure Lowering Effect ([1]; 480 min): -20.0%
time for which the maximum blood pressure lowering effect lasted after the administration ([1]; Table 6, dogs): up to 8 hours
